The test concerns 186277-243-T-J2-PDC complex spheroid viability. In words: Anticancer human tumor 186277-243-T-J2-PDC patient-derived colon adenocarcinoma cell line growth inhibition [POLQ]. Particulars: for viability, T/C: stronger effect = lower value. Here is the method: Multicellular complex tumor spheroid response to Polymerase (POL) inhibitors (novobiocin, ART-558, RP6685) in combination with a variety of drugs and investigational agents in selected tumor cell lines
The POL inhibitors (novobiocin, ART-558, and RP6685) were evaluated both individually and in combination with standard of care and investigational anticancer small molecules within a complex spheroid model of solid tumors. . Complex spheroids include a stromal component modeled by human endothelial cells (HUVEC) and fibroblasts modeled by human mesenchymal stem cells (MSCs). The concentration ranges selected for each drug and investigational agent were based upon clinically achievable concentrations if the clinical Cmax of the agent was known.
Compounds. The drugs and investigational agents: novobiocin (NSC847541), ART-558 (NSC835418), RP-6685 (NSC848927), peposertib (NSC802822), ceralasertib (NSC780249), elimusertib (NSC800525), camonsertib (NSC841442), AZD-1390 (NSC803789), olaparib (NSC753686), talazoparib (NSC767125), rucaparib (NSC756644), sotorasib (NSC818433), MRTX-1133 (NSC836407), SN-38 (NSC673596), topotecan (NSC609699), epotoside (NSC141540), doxorubicin (NSC123127), gemcitabine (NSC613327), 5-fluorouracil (NSC19893), paclitaxel (NSC125973), vemurafenib (NSC761431), MSA-2 (NSC828583), SN-011 (NSC837082), adavosertib (NSC754352), prexasertib (NSC758257), carboplatin (NSC241240) and oxaliplatin (NSC266046), were obtained from the National Cancer Institute (NCI) Developmental Therapeutics Program Chemical Repository (21). The FDA-approved anticancer drug set is available from the Developmental Therapeutics Program at https://dtp.cancer.gov/organization/dscb/obtaining/. […] The stock solutions were prepared in dimethyl sulfoxide (DMSO, Sigma-Aldrich, St. Louis, MO, cat. D2650), except for the platinum compounds which were prepared in saline (Quality Biological, Gaithersburg, MD, cat. 114-055-101), at 800-fold the tested concentration and stored at -70 degrees C prior to their use. All drugs and investigational agents were tested over a range starting from a high concentration at or near the clinical Cmax and decreasing in half-log increments. If the clinical Cmax for an agent had not been determined, the highest concentration tested was 10 microM, except for SN-38, which was tested at a high concentration of 1 microM.
Cell Culture. All cells were maintained in an incubator at 37 degrees C and 5% CO2 with 95% humidity. The PDC lines were cultured according to standard operating procedures established by the NCI PDMR (https://pdmr.cancer.gov). Table 3 of the manuscript, lists the cell lines along with the number of the three cell types plated to form the mct-spheroids and media for tumor cell growth. After thawing, all PDC lines, except 997537-175-T-J1-PDC and 415267-285-R-J2-PDC, were cultured in Matrigel-coated flasks prepared with a working solution of 1X Ham's F-12 nutrient mix, without supplementation (Thermo Fisher Scientific, cat. 11765054), 100 U/mL penicillin-streptomycin (Thermo Fisher Scientific, cat. 15140122), and 2.5% Matrigel (Corning Inc., Corning, NY, cat. 354248) for the first three passages. The two PDC lines 997537-175-T-J1-PDC and 415267-285-R-J2-PDC were cultured on uncoated flasks. The 857933-349-R-J2-PDC line was cultured in 6C/Colon 1B media containing advanced DMEM/F-12 (Thermo Fisher Scientific, cat. 12634028), 10 mM HEPES (Thermo Fisher Scientific, cat. 15630080), 1X GlutaMAX supplement (Thermo Fisher Scientific, cat. 35050061), 0.1 mg/mL primocin (InvivoGen, San Diego, CA, cat. ant-pm-2), 10% defined fetal bovine serum, heat inactivated (HyClone Laboratories Inc., Logan, UT, cat. SH30070.03HI), 50% L-WRN conditioned media (ATCC, cat. CRL-3276), 1.25 mM N-Acetyl-L-cysteine (Sigma-Aldrich, cat. A9165), 10 mM nicotinamide (Sigma-Aldrich, cat. N0636), 1X B-27 supplement (Thermo Fisher Scientific, cat. 17504044), 1X N-2 supplement (Thermo Fisher Scientific, cat. […]

The mark [1] stands for this setting: curve of first compound, second compound 0.0316 µM.
Where [2] appears, read: curve of first compound, second compound 0.1 µM.
Setting [3] is: curve of first compound, second compound 0.316 µM.
[4] abbreviates: curve of first compound, second compound 1 µM.
[5] abbreviates: curve of first compound, second compound 3.16 µM.
Where [6] appears, read: curve of first compound, second compound 10 µM.
The mark [7] stands for this setting: second compound 0.0316 µM, first compound 0.0316 µM.
Setting [8] is: second compound 0.0316 µM, first compound 0.1 µM.
Setting [9] is: second compound 0.0316 µM, first compound 0.316 µM.
Where [10] appears, read: second compound 0.0316 µM, first compound 1 µM.
The mark [11] stands for this setting: second compound 0.0316 µM, first compound 3.16 µM.
Setting [12] is: second compound 0.0316 µM, first compound 10 µM.
The mark [13] stands for this setting: second compound 0.1 µM, first compound 0.0316 µM.
Setting [14] is: second compound 0.1 µM, first compound 0.1 µM.
The mark [15] stands for this setting: second compound 0.1 µM, first compound 0.316 µM.
[16] abbreviates: second compound 0.1 µM, first compound 1 µM.
[17] abbreviates: second compound 0.1 µM, first compound 3.16 µM.
The mark [18] stands for this setting: second compound 0.1 µM, first compound 10 µM.
The mark [19] stands for this setting: second compound 0.316 µM, first compound 0.0316 µM.
[20] abbreviates: second compound 0.316 µM, first compound 0.1 µM.
[21] abbreviates: second compound 0.316 µM, first compound 0.316 µM.
Where [22] appears, read: second compound 0.316 µM, first compound 1 µM.
[23] abbreviates: second compound 0.316 µM, first compound 3.16 µM.
Setting [24] is: second compound 0.316 µM, first compound 10 µM.
The mark [25] stands for this setting: second compound 1 µM, first compound 0.0316 µM.
Setting [26] is: second compound 1 µM, first compound 0.1 µM.
[27] abbreviates: second compound 1 µM, first compound 0.316 µM.
Where [28] appears, read: second compound 1 µM, first compound 1 µM.
Where [29] appears, read: second compound 1 µM, first compound 3.16 µM.
Where [30] appears, read: second compound 1 µM, first compound 10 µM.
Setting [31] is: second compound 3.16 µM, first compound 0.0316 µM.
[32] abbreviates: second compound 3.16 µM, first compound 0.1 µM.
Setting [33] is: second compound 3.16 µM, first compound 0.316 µM.
[34] abbreviates: second compound 3.16 µM, first compound 1 µM.
Setting [35] is: second compound 3.16 µM, first compound 3.16 µM.
Where [36] appears, read: second compound 3.16 µM, first compound 10 µM.
Where [37] appears, read: second compound 10 µM, first compound 0.0316 µM.
[38] abbreviates: second compound 10 µM, first compound 0.1 µM.
Setting [39] is: second compound 10 µM, first compound 0.316 µM.
[40] abbreviates: second compound 10 µM, first compound 1 µM.
[41] abbreviates: second compound 10 µM, first compound 3.16 µM.
[42] abbreviates: second compound 10 µM, first compound 10 µM.

pIC50: −log10 of the molar value. Where “and” joins values, the source holds several entries; their conditions need not be identical. Equal values may be shown once.
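Note: spheroids exposed to compounds for seven days.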
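Throughout, for viability, T/C: 100% = DMSO vehicle control viability.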

For the compound `CCCS(=O)(=O)Nc1ccc(F)c(C(=O)c2c[nH]c3ncc(-c4ccc(Cl)cc4)cc23)c1F`, the viability, T/C runs as follows: (compound 0.0316 µM) 93.5% and 97.3% and 96.7%; (compound 0.1 µM) 80.9% and 85.4% and 97.5%; (compound 0.316 µM) 92.2% and 94.7% and 93%; (compound 1 µM) 90.7% and 79.6% and 82.2%; (compound 3.16 µM) 82.9% and 100% and 89.3%; (compound 10 µM) 64.4% and 59.1% and 42.5%. Besides, under “curve of compound”, the negative-log IC50 (pIC50) was < 5.00 and 5.08.
Take `CNCc1ccc(-c2[nH]c3cc(F)cc4c3c2CCNC4=O)cc1` + COC1C(OC(N)=O)C(O)C(Oc2ccc3c(O)c(NC(=O)c4ccc(O)c(CC=C(C)C)c4)c(=O)oc3c2C)OC1(C)C: the pIC50 is below 5.00 under setting [1]; below 5.00 under setting [2]; below 5.00 under setting [3]; below 5.00 under setting [4]; below 5.00 under setting [5]; below 5.00 under setting [6]. The viability, T/C by setting is: under setting [7], 99%; under setting [8], 96.1%; under setting [9], 91%; under setting [10], 85.8%; under setting [11], 99.3%; under setting [12], 116%. In addition, the viability, T/C was 102% under setting [13]; 96.3% under setting [14]; 106% under setting [15]; 105% under setting [16]; 106% under setting [17]; 99% under setting [18]. The viability, T/C is 110% under setting [19]; 99.8% under setting [20]; 102% under setting [21]; 93.1% under setting [22]; 115% under setting [23]; 115% under setting [24]. The viability, T/C was 87.1% under setting [25]; 107% under setting [26]; 101% under setting [27]; 104% under setting [28]; 102% under setting [29]; 101% under setting [30]. The viability, T/C by setting is: under setting [31], 87%; under setting [32], 104%; under setting [33], 108%; under setting [34], 99.6%; under setting [35], 109%; under setting [36], 112%. Also, the viability, T/C is, setting by setting: under setting [37], 103%; under setting [38], 105%; under setting [39], 104%; under setting [40], 93.1%; under setting [41], 104%; under setting [42], 112%.
For `COc1cc(C2c3cc4c(cc3C(OC3OC5COC(C)OC5C(O)C3O)C3COC(=O)C23)OCO4)cc(OC)c1O` (stereo unspecified) + Nc1ccc(C#CCN(C(=O)Cc2ncc(C(F)(F)F)cc2C(F)(F)F)c2ccc(F)cc2)nn1, the pIC50 is 5.34 under setting [1]; 5.40 under setting [2]; 5.50 under setting [3]; 5.43 under setting [4]; 5.44 under setting [5]; 5.58 under setting [6]. Moreover, the viability, T/C under setting [7] was 96.2%; the viability, T/C under setting [8] was 104%; the viability, T/C under setting [9] was 128%; the viability, T/C under setting [10] is 93.6%; the viability, T/C under setting [11] was 60.5%; the viability, T/C under setting [12] was 29.7%. For the same compound, the viability, T/C under setting [13] is 93.7%; the viability, T/C under setting [14] is 127%; the viability, T/C under setting [15] is 137%; the viability, T/C under setting [16] is 86.9%; the viability, T/C under setting [17] was 59.7%; the viability, T/C under setting [18] is 28.1%. Besides, the viability, T/C reads like this: under setting [19], 97.8%; under setting [20], 106%; under setting [21], 135%; under setting [22], 80%; under setting [23], 55.9%; under setting [24], 28.1%. Moreover, the viability, T/C by setting is: under setting [25], 92.2%; under setting [26], 115%; under setting [27], 123%; under setting [28], 79%; under setting [29], 58.3%; under setting [30], 28.4%. The viability, T/C reads like this: under setting [31], 108%; under setting [32], 110%; under setting [33], 125%; under setting [34], 74.6%; under setting [35], 59.8%; under setting [36], 24.4%. The viability, T/C is, setting by setting: under setting [37], 109%; under setting [38], 116%; under setting [39], 102%; under setting [40], 65.9%; under setting [41], 52.6%; under setting [42], 24.3%.
On to `COc1cccc2c1C(=O)c1c(O)c3c(c(O)c1C2=O)CC(O)(C(=O)CO)CC3OC1CC(N)C(O)C(C)O1` (stereo unspecified), for which the viability, T/C (compound 0.0316 µM) was 109% and 154% and 91.8%; the viability, T/C (compound 0.1 µM) is 56.6% and 106% and 42.8%; the viability, T/C (compound 1 µM) is 0.64% and 1.27% and 0.32%; the viability, T/C (compound 3.16 µM) is 0.26% and 1.06% and 0.23%; the viability, T/C (compound 10 µM) is 0.49% and 1.07% and 0.37%. For the same compound, the negative-log IC50 (pIC50) (curve of compound) was 6.93 and 6.60 and 7.07.
Consider `Nc1ccc(C#CCN(C(=O)Cc2ncc(C(F)(F)F)cc2C(F)(F)F)c2ccc(F)cc2)nn1`, for which the viability, T/C (compound 0.0316 µM) is 103% [middle of 13 runs]; the viability, T/C (compound 0.1 µM) is 102% [middle of 13 runs]; the viability, T/C (compound 0.316 µM) is 98.7% [middle of 13 runs]; the viability, T/C (compound 1 µM) is 101% [middle of 13 runs]; the viability, T/C (compound 3.16 µM) was 94.9% [middle of 13 runs]. Also, under “compound alone, run of 11/06/2023”, the negative-log IC50 (pIC50) was below 5.00.
For `C=CC(=O)N1CCN(c2nc(=O)n(-c3c(C)ccnc3C(C)C)c3nc(-c4c(O)cccc4F)c(F)cc23)C(C)C1` (stereo unspecified), the viability, T/C (compound 0.0316 µM) is 99.7% and 104% and 101%; the viability, T/C (compound 0.1 µM) is 93.3% and 94.9% and 105%; the viability, T/C (compound 0.316 µM) was 97.6% and 89.5% and 103%; the viability, T/C (compound 1 µM) was 96.6% and 85.6% and 99%; the viability, T/C (compound 3.16 µM) was 101% and 104% and 109%; the viability, T/C (compound 10 µM) was 103% and 95% and 93.3%. Also, where the note is “curve of compound”, the negative-log IC50 (pIC50) is below 5.00.
Turning to `COC1C(OC(N)=O)C(O)C(Oc2ccc3c(O)c(NC(=O)c4ccc(O)c(CC=C(C)C)c4)c(=O)oc3c2C)OC1(C)C` (stereo unspecified), the viability, T/C is 99.1% [middle of 13 runs] (compound 0.0316 µM); 97.7% [middle of 13 runs] (compound 0.1 µM); 97.7% [middle of 13 runs] (compound 0.316 µM); 103% [middle of 13 runs] (compound 3.16 µM); 92.6% [middle of 13 runs] (compound 10 µM). For the same compound, the pIC50 (compound alone, run of 10/31/2023) was below 5.00.

(Values after PubChem BioAssay AID1963854 (Molecular Pharmacology Branch, DTP, NCI, 2024).)
